Reference: PMC7181660, “A novel specific PERK activator reduces toxicity and extends survival in Huntington's disease models” (Scientific Reports, 2020)
Where two headings read alike, the source gives them in different places.

What was measured:
Assay in all cases: biochemical
Assay type in all cases: biochemical
panel of 391 kinases [1] = biological target: panel of 391 kinases (Homo sapiens, UniProt P27361); conditions: ERK1, MK-28 1 µM, ATP 1 µM
panel of 391 kinases [2] = biological target: panel of 391 kinases (Homo sapiens, UniProt P52333); conditions: JAK3, MK-28 1 µM, ATP 1 µM
panel of 391 kinases [3] = biological target: panel of 391 kinases (Homo sapiens, UniProt Q96GD4); conditions: Aurora B, MK-28 1 µM, ATP 1 µM
panel of 391 kinases [4] = biological target: panel of 391 kinases (Homo sapiens, UniProt P54753); conditions: EPHB3, MK-28 1 µM, ATP 1 µM
panel of 391 kinases [5] = biological target: panel of 391 kinases (Homo sapiens, UniProt Q6IQ55); conditions: TTBK2, MK-28 1 µM, ATP 1 µM
panel of 391 kinases [6] = biological target: panel of 391 kinases (Homo sapiens, UniProt Q13555); conditions: CAMK2g, MK-28 1 µM, ATP 1 µM
panel of 391 kinases [7] = biological target: panel of 391 kinases (Homo sapiens, UniProt Q16584); conditions: MLK3/MAP3K11, MK-28 1 µM, ATP 1 µM
panel of 391 kinases [8] = biological target: panel of 391 kinases (Homo sapiens, UniProt Q16816); conditions: PHKg1, MK-28 1 µM, ATP 1 µM
panel of 391 kinases [9] = biological target: panel of 391 kinases (Homo sapiens, UniProt Q9NRH2); conditions: SNRK, MK-28 1 µM, ATP 1 µM
panel of 391 kinases [10] = biological target: panel of 391 kinases (Homo sapiens, UniProt Q6VAB6); conditions: KSR2, MK-28 1 µM, ATP 1 µM
panel of 391 kinases [11] = biological target: panel of 391 kinases (Homo sapiens, UniProt P36507); conditions: MEK2, MK-28 1 µM, ATP 1 µM
panel of 391 kinases [12] = biological target: panel of 391 kinases (Homo sapiens, UniProt P08069); conditions: IGF1R, MK-28 1 µM, ATP 1 µM
panel of 391 kinases [13] = biological target: panel of 391 kinases (Homo sapiens, UniProt P08581); conditions: c-MET, MK-28 1 µM, ATP 1 µM
panel of 391 kinases [14] = biological target: panel of 391 kinases (Homo sapiens, UniProt P43250); conditions: GRK6, MK-28 1 µM, ATP 1 µM
panel of 391 kinases [15] = biological target: panel of 391 kinases (Homo sapiens, UniProt P57078); conditions: RIPK4, MK-28 1 µM, ATP 1 µM
panel of 391 kinases [16] = biological target: panel of 391 kinases (Homo sapiens, UniProt Q08345); conditions: DDR1, MK-28 1 µM, ATP 1 µM
panel of 391 kinases [17] = biological target: panel of 391 kinases (Homo sapiens, UniProt P48729); conditions: CK1a1, MK-28 1 µM, ATP 1 µM
panel of 391 kinases [18] = biological target: panel of 391 kinases (Homo sapiens, UniProt Q05397); conditions: FAK/PTK2, MK-28 1 µM, ATP 1 µM
panel of 391 kinases [19] = biological target: panel of 391 kinases (Homo sapiens, UniProt Q86Y07); conditions: VRK2, MK-28 1 µM, ATP 1 µM
panel of 391 kinases [20] = biological target: panel of 391 kinases (Homo sapiens, UniProt O15111); conditions: IKKa/CHUK, MK-28 1 µM, ATP 1 µM
panel of 391 kinases [21] = biological target: panel of 391 kinases (Homo sapiens, UniProt P49761); conditions: CLK3, MK-28 1 µM, ATP 1 µM
panel of 391 kinases [22] = biological target: panel of 391 kinases (Homo sapiens, UniProt O15264); conditions: P38d/MAPK13, MK-28 1 µM, ATP 1 µM
panel of 391 kinases [23] = biological target: panel of 391 kinases (Homo sapiens, UniProt P12931); conditions: c-Src, MK-28 1 µM, ATP 1 µM
panel of 391 kinases [24] = biological target: panel of 391 kinases (Homo sapiens, UniProt Q8IW41); conditions: MAPKAPK5/PRAK, MK-28 1 µM, ATP 1 µM
panel of 391 kinases [25] = biological target: panel of 391 kinases (Homo sapiens, UniProt P50750); conditions: MK-28 1 µM, ATP 1 µM; for remaining activity at 1 µM: read-out: % Enzyme Activity (relative to DMSO controls)
panel of 391 kinases [26] = biological target: panel of 391 kinases (Homo sapiens, UniProt Q9Y6M4); conditions: CK1g3, MK-28 1 µM, ATP 1 µM
[27] = read-out: % Enzyme Activity (relative to DMSO controls)

CN(/N=C\c1ccc(O)c(O)c1)c1nc(-c2ccccc2)cc(-c2ccccc2)n1 [MK-28]
% Enzyme Activity (relative to DMSO controls) (panel of 391 kinases [1]): 99.70% | remaining activity at 1 µM (panel of 391 kinases [1]; [27]): 101% | % Enzyme Activity (relative to DMSO controls) (panel of 391 kinases [2]): 104.48% | remaining activity at 1 µM (panel of 391 kinases [2]; [27]): 106% | % Enzyme Activity (relative to DMSO controls) (panel of 391 kinases [3]): 106.50% | remaining activity at 1 µM (panel of 391 kinases [3]; [27]): 107% | % Enzyme Activity (relative to DMSO controls) (panel of 391 kinases [4]): 97.56% | remaining activity at 1 µM (panel of 391 kinases [4]; [27]): 99.2% | % Enzyme Activity (relative to DMSO controls) (panel of 391 kinases [5]): 97.38% | remaining activity at 1 µM (panel of 391 kinases [5]; [27]): 98.9% | % Enzyme Activity (relative to DMSO controls) (panel of 391 kinases [6]): 86.57% | remaining activity at 1 µM (panel of 391 kinases [6]; [27]): 87.8% | % Enzyme Activity (relative to DMSO controls) (panel of 391 kinases [7]): 162.84% | remaining activity at 1 µM (panel of 391 kinases [7]; [27]): 168% | % Enzyme Activity (relative to DMSO controls) (panel of 391 kinases [8]): 89.19% | remaining activity at 1 µM (panel of 391 kinases [8]; [27]): 90.7% | % Enzyme Activity (relative to DMSO controls) (panel of 391 kinases [9]): 99.62% | remaining activity at 1 µM (panel of 391 kinases [9]; [27]): 100% | % Enzyme Activity (relative to DMSO controls) (panel of 391 kinases [10]): 93.44% | remaining activity at 1 µM (panel of 391 kinases [10]; [27]): 96% | % Enzyme Activity (relative to DMSO controls) (panel of 391 kinases [11]): 98.80% | remaining activity at 1 µM (panel of 391 kinases [11]; [27]): 99.9% | % Enzyme Activity (relative to DMSO controls) (panel of 391 kinases [12]): 98.39% | remaining activity at 1 µM (panel of 391 kinases [12]; [27]): 100% | % Enzyme Activity (relative to DMSO controls) (panel of 391 kinases [13]): 96.37% | remaining activity at 1 µM (panel of 391 kinases [13]; [27]): 102% | % Enzyme Activity (relative to DMSO controls) (panel of 391 kinases [14]): 102.17% | remaining activity at 1 µM (panel of 391 kinases [14]; [27]): 104% | % Enzyme Activity (relative to DMSO controls) (panel of 391 kinases [15]): 89.94% | remaining activity at 1 µM (panel of 391 kinases [15]; [27]): 95.1% | % Enzyme Activity (relative to DMSO controls) (panel of 391 kinases [16]): 100.73% | remaining activity at 1 µM (panel of 391 kinases [16]; [27]): 103% | % Enzyme Activity (relative to DMSO controls) (panel of 391 kinases [17]): 98.77% | remaining activity at 1 µM (panel of 391 kinases [17]; [27]): 99.5% | % Enzyme Activity (relative to DMSO controls) (panel of 391 kinases [18]): 97.96% | remaining activity at 1 µM (panel of 391 kinases [18]; [27]): 98.1% | % Enzyme Activity (relative to DMSO controls) (panel of 391 kinases [19]): 96.44% | remaining activity at 1 µM (panel of 391 kinases [19]; [27]): 97% | % Enzyme Activity (relative to DMSO controls) (panel of 391 kinases [20]): 106.17% | remaining activity at 1 µM (panel of 391 kinases [20]; [27]): 107% | % Enzyme Activity (relative to DMSO controls) (panel of 391 kinases [21]): 105.09% | remaining activity at 1 µM (panel of 391 kinases [21]; [27]): 110% | % Enzyme Activity (relative to DMSO controls) (panel of 391 kinases [22]): 103.63% | remaining activity at 1 µM (panel of 391 kinases [22]; [27]): 104% | % Enzyme Activity (relative to DMSO controls) (panel of 391 kinases [23]): 96.32% | remaining activity at 1 µM (panel of 391 kinases [23]; [27]): 97.7% | % Enzyme Activity (relative to DMSO controls) (panel of 391 kinases [24]): 77.52% | remaining activity at 1 µM (panel of 391 kinases [24]; [27]): 77.8% | % Enzyme Activity (relative to DMSO controls) (panel of 391 kinases [25]; CDK9/cyclin K): 95.35% | remaining activity at 1 µM (panel of 391 kinases [25]; CDK9/cyclin K): 96.1% | % Enzyme Activity (relative to DMSO controls) (panel of 391 kinases [25]; CDK9/cyclin T1): 83.98% | remaining activity at 1 µM (panel of 391 kinases [25]; CDK9/cyclin T1): 84.2% | % Enzyme Activity (relative to DMSO controls) (panel of 391 kinases [25]; CDK9/cyclin T2): 97.55% | remaining activity at 1 µM (panel of 391 kinases [25]; CDK9/cyclin T2): 103% | % Enzyme Activity (relative to DMSO controls) (panel of 391 kinases [26]): 76.84% | remaining activity at 1 µM (panel of 391 kinases [26]; [27]): 80.6%
